Measured values reported in patent publication US10065941B2, “Aminotriazine derivative and pharmaceutical composition comprising the same” (Shionogi & Co., Ltd., priority 2013, dated 2018).

Biological target: human P2X3 receptor (Homo sapiens (Human), UniProt P56373)
Experiment: Evaluation of human P2X3 receptor inhibitory activity (Test Example 1)
Type: cell-based
Settings: C6BU-1 cell transfected with human P2X3 receptor gene, FLIPR 384
In short: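 C6BU-1 cells stably expressing human P2X3, loaded with 4 μM Fluo-3-AM 1 h at 37 °C, preincubated 5 min with test compound, then stimulated with 150 nM ATP solution (stock, pre-dispense) and monitored by FLIPR for 4 min. IC50 derived from maximum fluorescence ratio (post-ATP peak over baseline).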

Sequence of human P2X3 receptor (P56373 whole entry): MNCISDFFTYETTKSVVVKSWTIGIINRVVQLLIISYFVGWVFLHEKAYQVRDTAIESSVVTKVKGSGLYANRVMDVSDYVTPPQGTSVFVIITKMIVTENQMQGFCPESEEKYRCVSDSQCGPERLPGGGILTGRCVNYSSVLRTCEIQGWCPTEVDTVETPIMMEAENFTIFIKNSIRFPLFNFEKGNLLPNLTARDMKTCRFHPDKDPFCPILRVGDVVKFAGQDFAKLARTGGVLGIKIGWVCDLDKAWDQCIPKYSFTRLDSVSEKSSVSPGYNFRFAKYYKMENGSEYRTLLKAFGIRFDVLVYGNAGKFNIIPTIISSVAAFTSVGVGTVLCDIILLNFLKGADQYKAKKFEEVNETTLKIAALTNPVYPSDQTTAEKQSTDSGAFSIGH

| Structure (SMILES) | IC50 [nM] |
| --- | --- |
| COc1ccc(Oc2ccc(/N=c3\[nH]c(=O)n(C[C@H](C)C(=O)O)c(=O)n3Cc3ccc(C)cc3)cc2)nc1 [Compound I-229] | 6 |
| CC(C)(Cn1c(=O)[nH]/c(=N\c2ccc(Oc3ccccn3)cc2)n(Cc2ccc(Cl)cc2)c1=O)C(=O)O [Compound I-154] | 8 |
| COC(=O)[C@@H](C)Cn1c(=O)[nH]/c(=N\c2ccc(Oc3cccnn3)c(F)c2)n(Cc2ccc(Cl)cc2)c1=O [Compound R-033] | 6 |
| C[C@@H](Cn1c(=O)[nH]/c(=N\c2ccc(Oc3ccc(F)nn3)cc2)n(Cc2ccc(Cl)cc2)c1=O)C(=O)O [Compound R-196] | 11 |
| CC1(C)OC[C@H](Cn2c(=O)[nH]/c(=N\c3ccc(Oc4ccccn4)cc3)n(Cc3ccc(Cl)cc3)c2=O)O1 [Compound R-234] | 3 |
| Cc1nc(Oc2ccc(/N=c3\[nH]c(=O)n(CC(C)(C)C(=O)O)c(=O)n3Cc3ccc(Cl)cc3)cc2)no1 [Compound R-115] | 65 |
| CCc1[nH]c2ccc(/N=c3\[nH]c(=O)n(C[C@H](C)C(=O)OC)c(=O)n3Cc3ccc(Cl)cc3)cc2c1C [Compound R-068] | 40 |
| C[C@@H](Cn1c(=O)[nH]/c(=N\c2ccc(Oc3ccnc(C#N)c3)cc2)n(Cc2ccc(Cl)cc2)c1=O)C(=O)O [Compound R-123] | 5 |
| COC(=O)CCn1c(=O)[nH]/c(=N\c2ccc(Oc3ccc(Cl)cn3)cc2)n(Cc2ccc(Cl)cc2)c1=O [Compound R-287] | 6 |
| O=C(O)Cn1c(=O)[nH]/c(=N\c2ccc(Oc3ccccn3)cc2)n(Cc2ccc(Cl)cc2)c1=O [Compound R-239, 1-(4-chlorobenzyl)-3-(hydroxylcarbonylmethyl)-6-[4-(2-pyridyloxy)phenylimino]-1,3,5-triazinane-2,4-dione] | 399 |
| O=C(O)Cn1c(=O)[nH]/c(=N\c2ccc(Oc3ccc(Cl)cn3)cc2)n(Cc2ccc(Cl)cc2)c1=O [Compound R-312] | 350 |
| NC(=O)NC(=O)Cn1c(=O)[nH]/c(=N\c2ccc(Oc3ccccn3)cc2)n(Cc2ccc(Cl)cc2)c1=O [Compound R-256] | 2 |
| COC(=O)[C@@H](C)Cn1c(=O)[nH]/c(=N\c2ccc(Oc3cccc(CI)n3)cc2)n(Cc2ccc(C)cc2)c1=O [Compound I-265] | 10 |
| COCc1cccc(Oc2ccc(/N=c3\[nH]c(=O)n(C[C@H](C)C(=O)O)c(=O)n3Cc3ccc(C)cc3)cc2)n1 [Compound I-256] | 29 |
| O=c1[nH]/c(=N\c2ccc(Oc3ncccc3F)cc2)n(Cc2ccc(Cl)cc2)c(=O)n1[C@H]1C[C@@H](C(=O)O)C1 [Compound I-064] | 10 |
| CC(C)(Cn1c(=O)[nH]/c(=N\c2ccc(OC3CCC3)c(F)c2)n(Cc2ccc(Cl)cc2)c1=O)C(=O)O [Compound R-077] | 24 |
| Cc1ccc(Cn2c(=O)n(C[C@H](C)C(=O)O)c(=O)[nH]/c2=N\c2ccc(Oc3ccc(Cl)cn3)cc2)cc1 [Compound I-100] | 4 |
| O=C(O)Cn1c(=O)[nH]/c(=N\c2ccc(Oc3ccc(F)cn3)cc2)n(Cc2ccc(Cl)cc2)c1=O [Compound R-311] | 428 |
| C[C@@H](Cn1c(=O)[nH]/c(=N\c2ccc(Oc3cccc(CO)n3)cc2)n(Cc2ccc(Cl)cc2)c1=O)C(=O)O [Compound I-257] | 16 |
| Cc1ccc(Cn2c(=O)n([C@@H](C)[C@@H](C)C(=O)O)c(=O)[nH]/c2=N\c2ccc(Oc3ccc(Cl)cn3)cc2)cc1 [Compound I-123] | 5 |

| Structure (SMILES) | IC50 [nM] |
| --- | --- |
| COC(=O)[C@@H](C)Cn1c(=O)[nH]/c(=N\c2ccc(Oc3cccnn3)cc2)n(Cc2ccc(Cl)cc2)c1=O [Compound R-119] | 5 |
| C[C@@H](Cn1c(=O)[nH]/c(=N\c2ccc(Oc3cccnn3)c(F)c2)n(Cc2ccc(Cl)cc2)c1=O)C(=O)O [Compound R-037] | 7 |
| C[C@@H](Cn1c(=O)[nH]/c(=N\c2ccc(Oc3cc(CO)ccn3)cc2)n(Cc2ccc(Cl)cc2)c1=O)C(=O)O [Compound I-240] | 22 |
| COC(=O)[C@@H](C)Cn1c(=O)[nH]/c(=N\c2ccc(Oc3cc(F)nc(F)c3)cc2)n(Cc2ccc(Cl)cc2)c1=O [Compound R-040] | 7 |
| O=c1[nH]/c(=N\c2ccc(Oc3ccccn3)cc2)n(Cc2ccc(Cl)cc2)c(=O)n1CCCO [Compound R-251, 1-(4-chlorobenzyl)-3-(3-hydroxypropyl)-6-[4-(2-pyridyloxy)phenylimino]-1,3,5-triazinane-2,4-dione] | 5 |
| COC(=O)C(C)(C)Cn1c(=O)[nH]/c(=N\c2ccc(Oc3ccccn3)c(F)c2)n(Cc2ccc(Cl)cc2)c1=O [Compound I-227] | 31 |
| COCc1cccc(Oc2ccc(/N=c3\[nH]c(=O)n(C[C@H](C)C(=O)OC)c(=O)n3Cc3ccc(Cl)cc3)cc2)n1 [Compound I-249] | 36 |
| COC(=O)[C@@H](C)Cn1c(=O)[nH]/c(=N\c2ccc(Oc3ccccn3)cc2)n(CC2CC3(CCC3)C2)c1=O [Compound I-268] | 3 |
| COC(=O)CCn1c(=O)[nH]/c(=N\c2ccc(Oc3ccccn3)c(F)c2)n(Cc2ccc(Cl)cc2)c1=O [Compound R-293] | 4 |
| C[C@H](Cn1c(=O)[nH]/c(=N\c2ccc(Oc3ccccn3)cc2)n(Cc2ccc(Cl)cc2)c1=O)C(=O)O [Compound I-141] | 14 |
| Cc1nsc(Oc2ccc(/N=c3\[nH]c(=O)n(C[C@H](C)C(=O)O)c(=O)n3Cc3ccc(Cl)cc3)cc2)n1 [Compound R-160] | 8 |
| Cc1ccc(Cn2c(=O)n(CC(C)(C)C(=O)O)c(=O)[nH]/c2=N\c2ccc(Oc3cccc(Cl)n3)cc2)cc1 [Compound I-128] | 8 |
| C[C@@H](Cn1c(=O)[nH]/c(=N\c2ccc(Oc3ncccc3C(F)(F)F)cc2)n(Cc2ccc(Cl)cc2)c1=O)C(=O)O [Compound I-032] | 11 |
| COC(=O)C(C)(C)Cn1c(=O)[nH]/c(=N\c2ccc(Oc3cnccn3)c(C)c2)n(Cc2ccc(Cl)cc2)c1=O [Compound R-129] | 7 |
| Cc1ccc(Cn2c(=O)n(C[C@H](C)C(=O)O)c(=O)[nH]/c2=N\c2ccc(Oc3ccc(C)cn3)cc2)cc1 [Compound I-112] | 4 |
| C[C@@H](Cn1c(=O)[nH]/c(=N\c2ccc(Oc3ccc(CF)cn3)cc2)n(Cc2ccc(Cl)cc2)c1=O)C(=O)O [Compound I-232] | 5 |
| C[C@@H](Cn1c(=O)[nH]/c(=N\c2ccc(Oc3ccnc(Cl)c3)cc2)n(Cc2ccc(Cl)cc2)c1=O)C(=O)O [Compound R-088] | 6 |
| COc1ccc(Oc2ccc(/N=c3\[nH]c(=O)n(CC(C)(C)C(=O)O)c(=O)n3Cc3ccc(Cl)cc3)cc2)nn1 [Compound R-190] | 9 |
| CCc1[nH]c2ccc(/N=c3\[nH]c(=O)n([C@@H](C)[C@@H](C)C(=O)O)c(=O)n3Cc3ccc(Cl)cc3)cc2c1C [Compound R-128] | 11 |
| O=C(Cn1c(=O)[nH]/c(=N\c2ccc(Oc3ccccn3)cc2)n(Cc2ccc(Cl)cc2)c1=O)NCCO [Compound R-242] | 5 |

| Structure (SMILES) | IC50 [nM] |
| --- | --- |
| COC(=O)[C@@H](C)Cn1c(=O)[nH]/c(=N\c2ccc(Oc3ccncc3)cc2)n(Cc2ccc(Cl)cc2)c1=O [Compound R-206] | 5 |
| O=C(Cn1c(=O)[nH]/c(=N\c2ccc(Oc3ccccn3)cc2)n(Cc2ccc(Cl)cc2)c1=O)NCC(F)(F)F [Compound R-243] | 4 |
| O=c1[nH]/c(=N\c2ccc(Oc3ccccn3)cc2)n(Cc2ccc(Cl)cc2)c(=O)n1C[C@H](O)CO [Compound R-235] | 10 |
| COC(=O)C(C)(C)Cn1c(=O)[nH]/c(=N\c2ccc(Oc3nc(C)ns3)cc2)n(Cc2ccc(Cl)cc2)c1=O [Compound R-137] | 6 |
| COC(=O)[C@H](C)[C@H](C)n1c(=O)[nH]/c(=N\c2ccc(Oc3cccc(F)n3)cc2)n(Cc2ccc(C)cc2)c1=O [Compound I-104] | 5 |
| CC1(C)OC[C@@H](Cn2c(=O)[nH]/c(=N\c3ccc(Oc4ccccn4)cc3)n(Cc3ccc(Cl)cc3)c2=O)O1 [Compound R-247] | 5 |
| C[C@@H](Cn1c(=O)[nH]/c(=N\c2ccc(Oc3cnccn3)cc2)n(Cc2ccc(Cl)cc2)c1=O)C(=O)O [Compound R-019] | 6 |
| Cc1ccc(Cn2c(=O)n(CCCC(=O)O)c(=O)[nH]/c2=N\c2ccc(Oc3cccc(F)n3)cc2)cc1 [Compound R-279] | 7 |
| COC(=O)C(C)(C)Cn1c(=O)[nH]/c(=N\c2ccc(N3CCOCC3)c(C)c2)n(Cc2ccc(Cl)cc2)c1=O [Compound R-102] | 100 |
| COC(=O)[C@@H](C)Cn1c(=O)[nH]/c(=N\c2ccc(N3CCCCC3)c(F)c2)n(Cc2ccc(Cl)cc2)c1=O [Compound R-140] | 37 |
| COc1cncc(Oc2ccc(/N=c3\[nH]c(=O)n(CC(C)(C)C(=O)O)c(=O)n3Cc3ccc(Cl)cc3)cc2)c1 [Compound R-202] | 12 |
| COC(=O)[C@@H](C)Cn1c(=O)[nH]/c(=N\c2ccc(Oc3ccc(OC(F)F)cn3)cc2)n(Cc2ccc(C)cc2)c1=O [Compound I-132] | 8 |
| COC(=O)[C@H](C)[C@H](C)n1c(=O)[nH]/c(=N\c2ccc(Oc3cncc(F)c3)c(F)c2)n(Cc2ccc(Cl)cc2)c1=O [Compound R-187] | 21 |
| C[C@@H](Cn1c(=O)[nH]/c(=N\c2ccc(Oc3cnc(C#N)nc3)cc2)n(Cc2ccc(Cl)cc2)c1=O)C(=O)O [Compound R-246] | 6 |
| COC(=O)[C@@H](C)Cn1c(=O)[nH]/c(=N\c2ccc(Oc3ncccc3C(F)(F)F)cc2)n(Cc2ccc(Cl)cc2)c1=O [Compound I-030] | 176 |
| CCOC(=O)[C@H]1C[C@@H](n2c(=O)[nH]/c(=N\c3ccc(Oc4ccc(Cl)cn4)cc3)n(Cc3ccc(C)cc3)c2=O)C1 [Compound I-173] | 8 |
| CC(C)(Cn1c(=O)[nH]/c(=N\c2ccc(Oc3ccnc(C#N)c3)cc2)n(Cc2ccc(Cl)cc2)c1=O)C(=O)O [Compound R-108] | 8 |
| COC(=O)[C@H](C)[C@H](C)n1c(=O)[nH]/c(=N\c2ccc(Oc3ccc(F)cn3)cc2)n(Cc2ccc(C)cc2)c1=O [Compound I-103] | 7 |
| COC(=O)[C@@H](C)Cn1c(=O)[nH]/c(=N\c2ccc(Oc3cnccn3)cc2)n(Cc2ccc(Cl)cc2)c1=O [Compound R-017] | 6 |
